This is an account of results in patent US9737514B2, “Methods and compositions for the treatment of proliferative vascular disorders” (Children's Medical Center Corporation, priority 2011, dated 2017).

Data set [1] relates to HemSC. The experiment in a line: Calcium influx assay by fluorescence microscopy. In kind it is cell-based, human.
Experimental: FIG. 10B depicts graphs of the effect of nifedipine on spontaneous Ca^2+ oscillations in HemSC treated with Rapamycin or DMSO for 6 days. Each line indicates the whole-cell Ca^2+ changes in an individual cell.
To test for functional features of SMCs, calcium influx in HemSC treated with Rapamycin or DMSO for six days was analyzed.
To monitor cellular calcium influxes, HemSC treated with Rapamycin (20 ng/ml) or DMSO for six days were labeled with a single wavelength calcium dye, Fluo-4 (1 Molecular Probes), by incubation in 5% CO2 at 37° C. for 20 min. […] Fluorescence intensity at a single wavelength (488 nm excitation) over time was followed using a Nikon Eclipse TE-2000-E Fluorescence microscope equipped with a 1000 W High Pressure Mercury Burner (Olympus Optical Company). Alterations in intracellular calcium were quantified by measuring changes in fluorescence intensity in a region of interest drawn over the entire cell including the nucleus. Background fluorescence was subtracted from fluorescence values at each time point. Results are presented as F/Fo, where F is the average fluorescence intensity in the region of interest (ROI) at each time point during time lapse imaging, and Fo is the fluorescence intensity in the ROI at time=0. […]
Data set [2] concerns HemSCs and cbEPCs in Matrigel. The experiment in a line: Two cell model of IH (HemSCs and cbEPCs in Matrigel), systemic drug. In kind it is in vivo, nude mice. The note with it: daily intra-peritoneal injection; for vascularization of Matrigel implants / formation of blood vessels (MVD): compared with vehicle. On the procedure: (§1) Next, the effect of systemic Rapamycin was tested in a two cell model of IH described previously (Greenberger et al., 2010). HemSCs and cbEPCs were mixed with Matrigel and injected subcutaneously in nude mice. This two-cell model has advantages over injecting HemSC alone: first it is more robust and thus more sensitive for detecting dose-response activity. Second, it allows one to test separately the effect of rapamycin on the HemSC versus cbEPCs, which are primary ECs isolated from cord blood that serve as prototypic young ECs. Rapamycin was administered daily by intra-peritoneal injection.
To test this concept, mice were given i.p. injections of low dose of dexamethasone (0.25 mg/kg), low dose of Rapamycin (0.25 mg/kg) or the combination of both.
(§2) Nude/Nude mice were purchased from Massachusetts General Hospital animal facility. Procedures were approved by the Animal Care and Use Committees of the Children's Hospital, Boston. Anesthesia was induced with 4% isofluorane and maintenance in 1-3% oxygen. Mice were anesthetized once for up to 5 min. The one cell and two cell models of IH were performed as reported (Greenberger et al., 2010; Khan et al., 2008) and microvessel density (MVD) was assessed by counting red blood cell-filled lumens (Melero-Martin et al., 2007). Values reported for each experimental condition correspond to the average MVD value±standard error of the mean (SEM) obtained from all the individual animals.
Rapamycin, Everolimus and Temsirolimus were purchased from LC Laboratories. Drugs were dissolved in DMSO followed by solvent solution (5% polyethylene glycol, 0.2% carboxymethylcellulose and 0.25% Tween-80 in H2O). Aliquots were kept in −20° C. Mice were given daily intra-peritoneal (i.p.) injections containing 200 μl of drug or the vehicle alone.

Data set [3] deals with HemSCs. Kind of data set: Two cell model of IH with HemSCs pre-treated in vitro. In kind it is in vivo, nude mice.
Source text: To test whether or not HemSCs are a target of Rapamycin, versus the cbEPCs or a murine host cell, HemSCs were pre-treated with Rapamycin for three days in vitro, the drug was washing out, and the Rapamycin-treated or control HemSCs were resuspended with cbEPCs in Matrigel, and injected into mice.
(§3) To do this, the anti-proliferative drug Roscovitine, a purine analogue andcyclin-dependent kinase inhibitor (De Azevedo et al., 1997) (Meijer et al., 1997) was used. First, the effect of Roscovitine on HemSCs proliferation was titrated in vitro. […] Next, HemSCs were pre-treated in vitro for three days with either Roscovitine or Rapamycin, the drugs washed out, and the cells then injected with untreated cbEPC into mice.
as §2

The test system of data set [4] is HemSCs. The experiment in a line: HemSC proliferation dose-response. In kind it is cell-based, human. How it is done: (§4) FIG. 1A depicts dose-response curves of HemSCs (squares), NHDF (triangles), and BM-MSCs (circles) treated with Rapamycin. Error bars denote standard deviation (SD) (n=32). FIG. 1B depicts a graph of the quantification of PCNA-positive cells in HemSCs treated with Rapamycin. Error bars denote SD (n=8). *P<0.05 compared with the non-treated group. FIG. 1C depicts the results of a Western blot for phospho4EBP-1(565) and total 4EBP-1 in HemSCs serum-starved for 24 hours, pretreated with vehicle alone (“0”) or rapamycin for 20 minutes and then stimulated with media containing serum and growth factors for 30 minutes. FIG. 1D depicts a graph of the bands in FIG. 1C quantified using ImageJ; normalized to β-actin.
(§5) Proliferating cell nuclear antigen (PCNA) served as an additional measure of proliferation (Prelich et al., 1987) (Hall and Levison, 1990).
as §3

For data set [5], the system named is HemSCs. The note with it: cited from earlier work.
Data set [6] concerns mTOR. The experiment in a line: Western blot of phosphorylated 4EBP1 in HemSCs. The class given is cell-based, human. The note with it: HemSCs serum-starved 24 hours, pretreated 20 minutes. On the procedure:
as §4
For orientation: In western blotting, separated proteins are transferred to a membrane and probed.

The subject of data set [7] is human ECs, including HemECs. The experiment in a line: PLGF-1 expression in endothelial cells (ELISA, RT-PCR). As to conditions: 48 hours of incubation. In kind it is cell-based. In general terms: In an ELISA, binding on a coated surface is turned into a signal by an enzyme label.
Experimental: FIG. 11C depicts a graph of quantitative ELISA analysis of PLGF-1 protein secreted from HemECs and Human Dermal Microvascular Endothelial Cells (HDMECs) following 48 hours of incubation with Rapamycin. FIG. 11D depicts a graph of the dose-response of Rapamycin on PLGF-1 mRNA expression in HemECs. Quantitative RT-PCR analyses of HemECs PLGF-1 expression following 48 hours of incubation with Rapamycin at the indicated concentration. FIG. 11E depicts a graph of the dose-response of Rapamycin on PLGF-1 protein secretion from HemECs. PLGF-1 was measured by quantitative ELISA analysis following 48 hours of incubation with Rapamycin at the indicated concentration.
(§6) An enzyme-linked immunoassay (ELISA) was performed using Quantikine Human VEGF and PLGF (R&D Systems). […]
Data set [8] has as its system HemSCs. Kind of data set: SMC/pericyte marker expression in HemSCs (qPCR, Western blot). The class given is cell-based, human. Background: Real-time PCR tracks product formation cycle by cycle.
Data set [9] deals with HemSCs. The experiment in a line: Endothelial differentiation of HemSCs. In kind it is cell-based, human. The note with it: in vitro.
Experimental: (§7) Whether the multi-lineage differentiation of HemSCs could be altered by Rapamycin was assayed.
(§8) Differentiation assays towards endothelial cells and adipocytes were done as reported (Khan et al., 2008).
The subject of data set [10] is HemSCs in Matrigel. The experiment in a line: One cell model of IH (HemSC implanted alone). In kind it is in vivo, nude mice. As to conditions: i.p. on days 1-6, explanted day 7. How it is done: as §1, §2
The test system of data set [11] is cbEPCs. The experiment in a line: Two cell model of IH with cbEPCs pre-treated in vitro. The class given is in vivo, nude mice.
Data set [12] has as its system normal human dermal fibroblasts (NHDF). The experiment in a line: NHDF proliferation dose-response. The class given is cell-based. The note with it: FIG. 1A. How it is done:
as §4, §5

Data set [13] relates to HemSCs. The experiment in a line: PCNA immunostaining of HemSCs. In kind it is cell-based, human. The note with it: 10 ng/ml. How it is done:
as §5
Human-specific CD31 (DakoCytomation) immunostaining was performed as described (MeleroMartin et al., 2007), (Roelofs et al., 2003). PhosphoAKT/VE-cadherin double immunofluorescence was done on cryosections. Slides were fixed with 8% paraformaldehyde, blocked with 1% BSA and incubated with anti-VE-Cadherin (goat, Santa Cruz Biotechnology, Santa Cruz, Calif.) 1:100 for one hour, followed by anti-goat Texas-Red (Vector Labs, Burlingame, Calif.) 1:200. Following an additional blocking step (1% BSA, 0.1% Triton-X), AntipAKT (mouse, Cell Signaling, Danvers, Mass.) 1:100, was applied over night in 4° C. and next, anti-mouse Alexa Fluor 488 (Invitrogen) 1:300 for one hour. PCNA immunostaining was done using anti-PCNA 1:500 (mouse, Santa Cruz Biotechnology, Santa-Cruz, Calif.). For immunostaining of paraffing embedded Matrigel explants, antigen retrieval was done by citrate buffer. Sections were blocked by 5% horse serum and incubated with a secondary anti-mouse horseradish peroxidase (HRP) conjugate at 1:300 (Vector Labs, Burlingame, Calif.). For immunofluorescence, cells were fixed with methanol, blocked by 1% BSA.

Data set [14] concerns BM-MSCs. Kind of data set: BM-MSC proliferation dose-response. The note with it: FIG. 1A. The class given is cell-based, human. How it is done:
as §4, §5

Data set [15] deals with HemSCs. The experiment in a line: Clonogenic assay (self-renewal). The class given is cell-based, human. The note with it: pre-treatment 20 ng/ml 4 days, colonies at 9 days. On the procedure:
To test self-renewal capacity of HemSCs, a clonogenic assay was performed (Ingram et al., 2004).
HemSCs were incubated with Rapamycin 20 ng/ml or DMSO, as a control, for 4 days. Following washout of the drug, cells were serially diluted to 8 cells per ml and plated in 384 well plates, 40 μl/well. Medium was replaced every 48 hours. At day 9, cells were fixed and stained with Hoechst. Following image capture by automated fluorescence microscopy, colony formation and the number of cells/colony were determined by quantifying the number of wells with Hoechst-stained nuclei and the number of Hoechst-stained nuclei/well using MetaXpress Software.

Data set [16] deals with HemSCs. The experiment in a line: Pro-angiogenic cytokine expression (antibody array, ELISA, qPCR). The class given is cell-based, human.
Experimental: To investigate whether corticosteroids and Rapamycin share common mechanisms for suppressing HemSCs-mediated vascularization, the effect of Rapamycin on expression of a panel of 43 pro-angiogenic proteins was evaluated.
Angiogenic Cytokine Antibody Array. Conditioned media from HemSCs and HemECs, treated or untreated with dexamethasone or Rapamycin, were analyzed for protein expression using RayBio® Human Angiogenesis Antibody Array C Series 1000 (RayBiotech); according to the manufacturer's instructions. Blots were analyzed by with image J software (NIH).
as §6
The subject of data set [17] is HemSCs and cbEPCs in Matrigel. The experiment in a line: Regression of pre-existing vessels, contrast-enhanced micro-ultrasonic imaging of Matrigel implants. The class given is in vivo, nude mice. The note with it: 2 mg/kg i.p.
Experimental: To test this, contrast-enhanced micro-ultrasonic imaging was used to measure blood flow in the Matrigel implants. […] For the experiment, mice were injected with cells and imaged at day 7 to record baseline blood flow in the implants. Mice were then randomized into two groups: Rapamycin, 2 mg/kg by i.p. injection or vehicle alone by i.p. injection. At day 17, follow-up imaging was performed.
Contrast-enhanced high resolution ultrasonic (US) imaging of the blood flow in Matrigel implants was performed using a Vevo 770 System with a 40-MHz RMV scanhead (Visual Sonics) (Loveless et al., 2009; Olive et al., 2009). MicroMarker non-targeting contrast agent (Visualsonics) was prepared according to manufacturer's guidelines. For imaging, mice were anesthetized with 2% isofluorane, coupling gel was applied to cover the entire region of interest, and 2-D B-mode scout images established the central slice of the Matrigel. The transducer was placed such that the 6 mm focal spot converged at the center of the Matrigel. Baseline images were acquired in Contrast Mode, and a 50 μL bolus of contrast agent suspension was administered via tail vein catheter during acquisition of a second contrast video.
In data set [18] the test system is cbEPCs. The experiment in a line: Endothelial proliferation assay. In kind it is cell-based, human. As to conditions: 20 ng/ml, 48 hours, not rescued by VEGF-A or PLGF-1.
Experimental: FIG. 11A depicts a graph of cell number of cbEPCs treated for 48 hours with Rapamycin or (20 ng/ml) DMSO as a control, in the presence of either VEGF-A (37.5 ng/ml), PLGF-1 (37.5 ng/ml) or the combination. Cell number was quantified by automatic microscopy and software analysis. Bars denote the standard deviation with n=32 for each treatment combination. FIG. 11B depicts a graph of cell number of cbEPCs treated for 48 hours with Everolimus (20 ng/ml), Temsirolimus (200 ng/ml) or DMSO as a control, in the presence of VEGF-A (37.5 ng/ml) or PLGF-1 (37.5 ng/ml). Cell number was quantified by automatic microscopy and software analysis. Bars denote the standard deviation with n=32 for each treatment combination.
To study this effect, Rapamycin was tested on cbEPCs.
cbEPCs at passages 6-10 were plated in 384-well plates at 1000 cells per well. 24 hours later, media was removed and replaced with EBM-2 5% fetal bovine serum media containing the recombinant human proteins VEGF-A at 37.5 ng/ml (R&D Systems) or PlGF-1 at 37.5 ng/ml (R&D Systems), and the drug compounds Rapamycin (20 ng/ml), Everolimus 20 ng/ml or Temsirolimus 200 ng/ml in replicates of 32. 48 hours later, cells were fixed and stained with Hoechst (Invitrogen). Following image capture by automated fluorescence microscopy, cell number was determined using MetaXpress Software.
The test system of data set [19] is HemSCs. Kind of data set: Adipogenic differentiation of HemSCs. As to conditions: adipogenic differentiation protocol. The class given is cell-based, human.
Experimental: as §7, §8
The test system of data set [20] is HemSCs. The experiment in a line: Viability / cell morphology by phalloidin staining. In kind it is cell-based, human.

Take `COC(=O)C1=C(C)NC(C)=C(C(=O)OC)C1c1ccccc1[N+](=O)[O-]` [Nifedipine, nifedipine]: the “spontaneous Ca2+ oscillations” value in data set [1] (10 uM, Rapamycin-treated HemSC) is “cessation of oscillations”.
`CO[C@H]1C[C@@H]2CC[C@@H](C)[C@@](O)(O2)C(=O)C(=O)N2CCCC[C@H]2C(=O)O[C@H]([C@H](C)C[C@@H]2CC[C@@H](OCCO)[C@H](OC)C2)CC(=O)[C@H](C)/C=C(\C)[C@@H](O)[C@@H](OC)C(=O)[C@H](C)C[C@H](C)/C=C/C=C/C=C/1C` [everolimus]: in data set [2], the “vascularization of Matrigel implants / formation of blood vessels (MVD)” value is “significantly inhibited”.
Take `CC[C@H](CO)Nc1nc(NCc2ccccc2)c2ncn(C(C)C)c2n1` [Roscovitine]: in data set [3] (HemSCs pre-treated in vitro three days, washed out, injected with untreated cbEPC), the “inhibition of microvessel density (in words)” value is on record as “did not”. For the same molecule, the inhibition at 3.125 µM in [4] (Homo sapiens, read-out: inhibition of HemSCs proliferation) was determined as 55%.
Regarding `C[C@@H]1C[C@H]2[C@@H]3CCC4=CC(=O)C=C[C@]4(C)[C@@]3(F)[C@@H](O)C[C@]2(C)[C@@]1(O)C(=O)CO` [Dexamethasone, dexamethasone], the “VEGF-A, IL-6, MMP-1, MCP-1 and UPAR expression” value in [5] is “suppressed”.
With `CO[C@H]1C[C@@H]2CC[C@@H](C)[C@@](O)(O2)C(=O)C(=O)N2CCCC[C@H]2C(=O)O[C@H]([C@H](C)C[C@@H]2CC[C@@H](OC(=O)C(C)(CO)CO)[C@H](OC)C2)CC(=O)[C@H](C)/C=C(\C)[C@@H](O)[C@@H](OC)C(=O)[C@H](C)C[C@H](C)/C=C/C=C/C=C/1C` [temsirolimus], the “vascularization of Matrigel implants / formation of blood vessels (MVD)” value in [2] is “significantly inhibited”.
In the case of `CO[C@H]1C[C@@H]2CC[C@@H](C)[C@@](O)(O2)C(=O)C(=O)N2CCCC[C@H]2C(=O)O[C@H]([C@H](C)C[C@@H]2CC[C@@H](O)[C@H](OC)C2)CC(=O)[C@H](C)/C=C(\C)[C@@H](O)[C@@H](OC)C(=O)[C@H](C)C[C@H](C)/C=C/C=C/C=C/1C` [Rapamycin, rapamycin], the “inhibition of microvessel density” value in [3] (HemSCs pre-treated in vitro three days, washed out, injected with untreated cbEPC (Roscovitine comparison experiment)) stood at 60%. Besides, in data set [3] (HemSCs pre-treated three days in vitro, drug washed out, injected with cbEPCs), the “inhibition of blood vessel formation” value was determined as 80%. The “de novo formation of human CD31-positive blood vessels” value in data set [2] (anti-human CD31 staining) is “inhibited the de novo formation”. Besides, the “vascularization of Matrigel implants / formation of blood vessels (MVD)” value in data set [2] is listed as “dose-dependent inhibition”. In addition, in data set [6], the “constitutive and serum/growth factor stimulated levels of phosphorylated 4EBP1” value is “dose-dependent decrease”. Besides, in data set [7], the “endogenous PLGF-1” value is reported as “dose-dependent suppression”. Besides, the “expression levels of calponin, NG2 and PDGF-Rβ” value in [8] (FIG. 10A) is on record as “unchanged”. Moreover, in data set [8] (incubation four days), the “SM22-alpha and αSMA at the protein level” value is given as “increased”; the “smMHC and SM22-alpha transcript levels” value was “upregulation”. The “ability of HemSCs to differentiate towards an endothelial phenotype” value in [9] is given as “No effect”. In addition, the “functional features of SMCs (calcium influx)” value in data set [1] (HemSC treated 20 ng/ml six days) is “express L-type voltage gated channels”. Besides, in data set [10], the “vessel formation, HemSC implanted alone” value is “inhibited vessel formation”. Also, in [11], the “blood vessel formation after pre-treatment of cbEPCs” value was “no effect”. Besides, in data set [12], the “sensitivity of NHDF proliferation compared with HemSCs” value is “less sensitive”. Also, the “suppression of percentage of PCNA-positive HemSCs” value in [13] is listed as 80%. Also, in data set [14], the “sensitivity of BM-MSCs proliferation compared with HemSCs” value is reported as “less sensitive”. In addition, in data set [15], the “appearance of colonies with >500 cells” value is listed as “abolished” and the “decrease in the number of HemSC colonies formed” value worked out at 60%. Further, in data set [16], the “expression of VEGF-A by HemSCs at the mRNA or protein level” value is reported as “did not block”. Besides, the “angiogenin and PLGF-1 expression” value in [16] (in HemSCs and cbEPCs) was “downregulated”. Moreover, in data set [17], the “vascularization of Matrigel implants macroscopically and by histological analysis” value is reported as “less vascularized”. In data set [17] (day 7 to day 17), the “blood flow in the implant (contrast intensity)” value is reported as “reduced blood flow”. The “growth of cbEPCs” value in [18] is reported as “suppressed growth”. Moreover, the “expression of adipogenic markers LPL, C/EBP-α and accumulation of lipid droplets” value in data set [19] is listed as “blocked expression”. In addition, the “viability (normal cell morphology, phalloidin staining)” value in [20] is “not affected”. Also, the “inhibition of HemSCs proliferation” value in data set [4] (concentrations of 1 ng/ml and higher) is given as ~40%.
